The values below come from US20150190479A1, “DELIVERY OF CHOLESTERYL ESTER TO STEROIDOGENIC TISSUES” (ALPHACORE PHARMA, LLC, priority 2010, published 2015).

Holding throughout (format): in vivo, human
A short description of experiment [1]: Adrenal function of a trauma patient under treatment. The settings on record: car accident victim; combination of 150 mg/day anacetrapib and LCAT injection (40 mg) every 5 days. From the text:
The efficacy of a particular dose may be assessed by reference noting the change in HDL-C or improvement in certain physiologic parameters. Suitable physiologic parameters include, but are not limited to, improved cortisol response to ACTH, improved cortisol levels, change in circulating levels of steroids, e.g., corticosteroids, glucocorticoids, cortisol, testosterone, estrogen, decreased inflammatory cytokines, and improved liver function.
A victim of a car accident with abdominal injuries is brought to the hospital. Their HDL is 55 mg/dl. As HDL routinely falls after trauma, the physician prescribes 150 mg/day anacetrapib and an injection of LCAT (40 mg) every 5 days until the patient is fully stabilized. This treatment maintained the patient's HDL at >75 mg/dl throughout their recovery. Adrenal function was maintained.

A short description of experiment [2]: Testosterone level and complaints of a patient with low testosterone. The settings on record: HDL-C 25 mg/dl, 150 mg/day. The procedure:
A patient complains of lethargy and impotence. Their testosterone levels are low, and their HDL-C is 25 mg/dl. The physician prescribes ancetrapib at a dose of 150 mg/day. […] The patient's original complaints are absent.

Experiment [3] can be described thus: HDL-C level of a patient after treatment (illustrative patient examples). The settings on record: patient admitted for major surgery, HDL-C 25 mg/dl at admission; LCAT 40 mg given 24 hours prior to surgery. From the text:
Measurement of biomarker levels and parameters described above may be measured using methods that are well known in the art. For example, change in HDL-CE level is easily detected with standard clinical laboratory procedures. Likewise, measuring the adrenal response to ACTH is commonly used in patients with suspected adrenal insufficiency. One of ordinary skill in the art would understand the significance of the results and may choose to adjust the dose based on assessments such as those described above.
A patient is admitted into the hospital for major surgery. The patients HDL-C level is 25 mg/dl. […] The patient is administered a dose of LCAT of 40 mg 24 hours prior to surgery. The patient's HDL-C is measured prior to surgery, and is now above 50 mg/di, thus greatly reducing risk of infection and/or death following the procedure.
A burn victim is stabilized in the hospital with an HDL-C level of 12 mg/dl. […] The patient is infused with rHDL at a dose of 25 mg/kg over a period of 5 hours, raising the patient's HDL-C by 50 mg/dl. In order to maintain this level of HDL, the patient is administered a 60 mg dose of LCAT. Cortisol levels are monitored periodically to determine if the adrenal function is normalized. […]
A patient is beginning to enter septic shock. […] Cortisol levels are monitored to determine if the adrenal function is normalized. […]

Take `COc1cc(F)c(C(C)C)cc1-c1ccc(C(F)(F)F)cc1CN1C(=O)O[C@H](c2cc(C(F)(F)F)cc(C(F)(F)F)c2)[C@@H]1C` [anacetrapib]: the adrenal function entry in experiment [1] is “maintained”. Moreover, the “patient's original complaints (lethargy and impotence)” value in experiment [2] is “absent”. Besides, the “testosterone level on recheck” value in experiment [2] (rechecked 'For weeks later') is “within normal levels”.

B1: lecithin-cholesterol acyltransferase (protein, UniProt P04180 25-440, looked up)
Phosphatidylcholine-sterol …: FWLLNVLFPPHTTPKAELSNHTRPVILVPGCLGNQLEAKLDKPDVVNWMCYRKTEDFFTIWLDLNMFLPLGVDCWIDNTRVVYNRSSGLVSNAPGVQIRVPGFGKTYSVEYLDSSKLAGYLHTLVQNLVNNGYVRDETVRAAPYDWRLEPGQQEEYYRKLAGLVEEMHAAYGKPVFLIGHSLGCLHLLYFLLRQPQAWKDRFIDGFISLGAPWGGSIKPMLVLASGDNQGIPIMSSIKLKEEQRITTTSPWMFPSRMAWPEDHVFISTPSFNYTGRDFQRFFADLHFEEGWYMWLQSRDLLAGLPAPGVEVYCLYGVGLPTPRTYIYDHGFPYTDPVGVLYEDGDDTVATRSTELCGLWQGRQPQPVHLLPLHGIQHLNMVFSNLTLEHINAILLGAYRQGPPASPTASPEPPPPE
notes: enzyme
In the case of B1, in experiment [1], the adrenal function result is on record as “maintained”. Moreover, in experiment [3], the “patient's HDL-C measured prior to surgery” value is “above 50 mg/di”.
